Laboratory results: the supplement of paper PMC9780213

Columns and labels:
Conditions in all cases: treatment time: 24 h
U2OS = experiment: cell count relative to DMSO control (panel A, nuclei/RNA/PMG/mitochondria stain) (fraction of control); higher = more cells (less toxicity)
Procedure: (§1)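 U2OS-derived cells in 384-well plates were treated for 24 h with a 7-point 2-fold dilution series (top dose 20 µM for most compounds; final max DMSO 1%), then fixed, stained in four marker panels and imaged on a Cellomics ArrayScan. Cell count per treatment (three replicate plates merged) is given as a fraction of DMSO control. Panel A used parental U2OS, panel B U2OS-mOrange2-Peroxisome, panel C1 U2OS-LMNB1-TUBA1B-ACTB (DRAQ5 nuclei).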

U2OS-LMNB1-TUBA1B-ACTB = experiment: cell count relative to DMSO control (panel C1, DRAQ5/ER stain) (fraction of control); higher = more cells (less toxicity)
Procedure: as §1

U2OS-mOrange2-Peroxisome = experiment: cell count relative to DMSO control (panel B, lysosome/peroxisome/lipid stain) (fraction of control); higher = more cells (less toxicity)
Procedure: as §1

COc1ccc(C[C@H]2NC[C@H](O)[C@H]2OC(C)=O)cc1 [anisomycin]
cell count
Conditions | 0.3125 µM | 0.625 µM | 1.25 µM | 2.5 µM | 5 µM | 10 µM | 20 µM
U2OS | 0.794 | 0.502 | 0.186 | 0.0402 | 0.0213 | 0.0357 | 0.053
U2OS-LMNB1-TUBA1B-ACTB | 0.84 | 0.602 | 0.226 | 0.0722 | 0.0685 | 0.0611 | 0.166
U2OS-mOrange2-Peroxisome | 0.678 | 0.277 | 0.0792 | 0.0323 | 0.133 | 0.195 | 0.1

CCCC[C@H]1C(=O)O[C@H](C)[C@H](NC(=O)c2cccc(NC=O)c2O)C(=O)O[C@@H](C)[C@@H]1OC(=O)CC(C)C [antimycin-a]
cell count
Conditions | 0.15625 µM | 0.3125 µM | 0.625 µM | 1.25 µM | 2.5 µM | 5 µM | 10 µM
U2OS | 1.04 | 1.02 | 0.799 | 0.644 | 0.587 | 0.497 | 0.507
U2OS-LMNB1-TUBA1B-ACTB | 1.01 | 1.05 | 0.943 | 0.716 | 0.66 | 0.626 | 0.54
U2OS-mOrange2-Peroxisome | 1.04 | 0.945 | 0.858 | 0.811 | 0.724 | 0.66 | 0.739

O=C(/C=C/c1cccc(S(=O)(=O)Nc2ccccc2)c1)NO [belinostat]
cell count
Conditions | 0.3125 µM | 0.625 µM | 1.25 µM | 2.5 µM | 5 µM | 10 µM | 20 µM
U2OS | 1.07 | 1.03 | 1.1 | 1.07 | 1.04 | 0.557 | 0.351
U2OS-LMNB1-TUBA1B-ACTB | 1.04 | 1.04 | 1.02 | 0.99 | 1.09 | 0.701 | 0.397
U2OS-mOrange2-Peroxisome | 0.814 | 0.805 | 1.05 | 1.14 | 1.19 | 1.18 | 0.581

Cn1c(CCCC(=O)O)nc2cc(N(CCCl)CCCl)ccc21 [bendamustine]
cell count
Conditions | 0.3125 µM | 0.625 µM | 1.25 µM | 2.5 µM | 5 µM | 10 µM | 20 µM
U2OS | 0.945 | 0.814 | 0.265 | 0.1 | 0.145 | 0.133 | 0.162
U2OS-LMNB1-TUBA1B-ACTB | 1.02 | 1.03 | 0.607 | 0.26 | 0.277 | 0.264 | 0.284
U2OS-mOrange2-Peroxisome | 0.462 | 0.439 | 0.374 | 0.371 | 0.366 | 0.422 | 0.454

Cc1c(N)nc([C@H](CC(N)=O)NC[C@H](N)C(N)=O)nc1C(=O)N[C@H](C(=O)N[C@H](C)[C@@H](O)[C@H](C)C(=O)N[C@H](C(=O)NCCc1nc(-c2nc(C(=O)NCCC[S+](C)C)cs2)cs1)[C@@H](C)O)[C@@H](O[C@@H]1O[C@@H](CO)[C@@H](O)[C@H](O)[C@@H]1O[C@H]1O[C@H](CO)[C@@H](O)[C@H](OC(N)=O)[C@@H]1O)c1c[nH]cn1 [bleomycin]
cell count
Conditions | 0.3125 µM | 0.625 µM | 1.25 µM | 2.5 µM | 5 µM | 10 µM | 20 µM
U2OS | 0.746 | 0.849 | 0.8 | 0.933 | 0.701 | 0.817 | 0.794
U2OS-LMNB1-TUBA1B-ACTB | 0.845 | 0.893 | 0.934 | 1.02 | 0.88 | 0.909 | 0.887
U2OS-mOrange2-Peroxisome | 1.36 | 1.16 | 1.31 | 1.26 | 1.32 | 1.25 | 1.34

C[C@H]1CCC/C=C/[C@@H]2C[C@H](O)C[C@H]2[C@H](O)/C=C/C(=O)O1 [brefeldin-a]
cell count
Conditions | 0.3125 µM | 0.625 µM | 1.25 µM | 2.5 µM | 5 µM | 10 µM | 20 µM
U2OS | 0.543 | 0.545 | 0.527 | 0.584 | 0.586 | 0.644 | 0.577
U2OS-LMNB1-TUBA1B-ACTB | 0.698 | 0.697 | 0.661 | 0.616 | 0.632 | 0.584 | 0.529
U2OS-mOrange2-Peroxisome | 0.53 | 0.567 | 0.55 | 0.574 | 0.515 | 0.544 | 0.557

CN(C)[C@@H]1C(O)=C(C(N)=O)C(=O)[C@@]2(O)C(O)=C3C(=O)c4c(O)ccc(Cl)c4[C@@](C)(O)[C@H]3C[C@@H]12 [chlortetracycline]
cell count
Conditions | 0.3125 µM | 0.625 µM | 1.25 µM | 2.5 µM | 5 µM | 10 µM | 20 µM
U2OS | 1.12 | 1.07 | 1.08 | 1.06 | 1.02 | 0.933 | 0.783
U2OS-LMNB1-TUBA1B-ACTB | 1.15 | 1.12 | 1.1 | 0.983 | 0.989 | 1.07 | 0.897
U2OS-mOrange2-Peroxisome | 0.886 | 0.771 | 0.779 | 0.944 | 1.01 | 0.62 | 0.486

N.N.[Cl][Pt][Cl] [cisplatin]
cell count
Conditions | 0.15625 µM | 0.3125 µM | 0.625 µM | 1.25 µM | 2.5 µM | 5 µM | 10 µM
U2OS | 1.07 | 1.04 | 1.12 | 1.03 | 1.02 | 1.02 | 0.948
U2OS-LMNB1-TUBA1B-ACTB | 1.01 | 1.06 | 1.12 | 1.03 | 0.956 | 0.991 | 1.01
U2OS-mOrange2-Peroxisome | 1.19 | 0.977 | 0.858 | 0.908 | 0.967 | 1.05 | 0.956

C=C1[C@@H](C)[C@H]2[C@H](Cc3ccccc3)NC(=O)[C@]23[C@H](OC(C)=O)/C=C/[C@@](C)(O)C(=O)[C@@H](C)C/C=C/[C@H]3[C@@H]1O [cytochalasin-d]
cell count
Conditions | 0.000781 µM | 0.0015625 µM | 0.003125 µM | 0.00625 µM | 0.0125 µM | 0.025 µM | 0.05 µM
U2OS | 0.938 | 0.944 | 0.899 | 1 | 0.643 | 0.463 | 0.403
U2OS-LMNB1-TUBA1B-ACTB | 1.08 | 1.04 | 1.04 | 0.821 | 0.499 | 0.374 | 0.356
U2OS-mOrange2-Peroxisome | 0.993 | 1.12 | 1.29 | 1.24 | 0.826 | 0.656 | 0.602

Cc1c2oc3c(C)ccc(C(=O)N[C@@H]4C(=O)N[C@H](C(C)C)C(=O)N5CCC[C@H]5C(=O)N(C)CC(=O)N(C)[C@@H](C(C)C)C(=O)O[C@@H]4C)c3nc-2c(C(=O)N[C@@H]2C(=O)N[C@H](C(C)C)C(=O)N3CCC[C@H]3C(=O)N(C)CC(=O)N(C)[C@@H](C(C)C)C(=O)O[C@@H]2C)c(N)c1=O [dactinomycin]
cell count
Conditions | 0.3125 µM | 0.625 µM | 1.25 µM | 2.5 µM | 5 µM | 10 µM | 20 µM
U2OS | 0.928 | 0.89 | 0.807 | 0.741 | 0.73 | 0.381 | 0.229
U2OS-LMNB1-TUBA1B-ACTB | 1.05 | 1.09 | 1 | 0.993 | 0.824 | 0.661 | 0.418
U2OS-mOrange2-Peroxisome | 1.08 | 1.07 | 1.01 | 0.743 | 0.663 | 0.243 | 0.139

COc1cccc2c1C(=O)c1c(O)c3c(c(O)c1C2=O)C[C@@](O)(C(C)=O)C[C@@H]3O[C@H]1C[C@H](N)[C@H](O)[C@H](C)O1 [daunorubicin]
cell count
Conditions | 0.07812 µM | 0.15625 µM | 0.3125 µM | 0.625 µM | 1.25 µM | 2.5 µM | 5 µM
U2OS | 0.92 | 0.928 | 0.96 | 0.829 | 0.457 | 0.376 | 0.183
U2OS-LMNB1-TUBA1B-ACTB | 0.953 | 0.99 | 1.02 | 0.912 | 0.645 | 0.613 | 0.472
U2OS-mOrange2-Peroxisome | 0.537 | 0.529 | 0.527 | 0.605 | 0.618 | 0.398 | 0.152

CO[C@H]1C[C@@H]2CC[C@@H](C)[C@@](O)(O2)C(=O)C(=O)N2CCCC[C@H]2C(=O)O[C@H]([C@H](C)C[C@@H]2CC[C@@H](OP(C)(C)=O)[C@H](OC)C2)CC(=O)[C@H](C)/C=C(\C)[C@@H](O)[C@@H](OC)C(=O)[C@H](C)C[C@H](C)/C=C/C=C/C=C/1C [deforolimus]
cell count
Conditions | 0.07812 µM | 0.15625 µM | 0.3125 µM | 0.625 µM | 1.25 µM | 2.5 µM | 5 µM
U2OS | 0.964 | 0.74 | 0.655 | 0.557 | 0.504 | 0.582 | 0.382
U2OS-LMNB1-TUBA1B-ACTB | 0.878 | 0.753 | 0.625 | 0.644 | 0.471 | 0.438 | 0.373
U2OS-mOrange2-Peroxisome | 0.782 | 0.674 | 0.595 | 0.61 | 0.485 | 0.385 | 0.364

CNCCCN1c2ccccc2CCc2ccccc21 [desipramine]
cell count
Conditions | 0.3125 µM | 0.625 µM | 1.25 µM | 2.5 µM | 5 µM | 10 µM | 20 µM
U2OS | 0.822 | 0.55 | 0.489 | 0.481 | 0.379 | 0.243 | 0.189
U2OS-LMNB1-TUBA1B-ACTB | 0.972 | 0.817 | 0.772 | 0.652 | 0.595 | 0.32 | 0.333
U2OS-mOrange2-Peroxisome | 0.62 | 0.64 | 0.617 | 0.571 | 0.15 | 0.115 | 0.0511
